Read-outs that look alike come from different tables or passages of the source. Peptide text beside a SMILES is read from it.
Columns and labels:
[1] = Hill's plot for interaction between synthetic peptides and lipid A; format: binding; settings: number of peptide molecules to 1 LPS molecule
Human erythrocytes = test: Hemolysis assay, human erythrocytes; format: cell-based; settings: at 100 μg/ml
Description: Human and rabbit erythrocytes were both used to test the hemolytic activities of the peptides. Whole blood was collected in heparinized sterile syringe, transferred to sterile borosilicate tube and centrifuged at 1200 g for 5 minutes at 4° C. The supernatant including the leukocytes above the erythrocyte pellet was discarded. The erythrocytes were washed 3 times using three volumes of prechilled pyrogen-free saline (PFS). An erythrocyte suspension at 0.4% was prepared for the hemolysis assay. Serial two-fold dilutions of the peptides was prepared in PFS and 100 μl aliquots were added to equal volumes of 0.4% erythrocyte solution in a 96-well microtiter plate (Nunclon™ Δ surface, Nunc) to give final peptide concentrations ranging from 6 to 100 μg/ml. The mixtures were incubated at 37° C. for 1 h. The intact erythrocytes were then pelleted by centrifuging at 1000 g for 5 min. One hundred μl of the supernatant was transferred to a new 96-well microtiter plate and the amount of hemoglobin released into the supernatant was determined by reading the absorbance at 414 nm using a SPECTRAmax™ 340 plate reader with SOFTmax PRO™ version 1.2.0. A positive control with 100 μl of 0.4% erythrocyte lysed in 1% Triton-X 100 was taken as 100% lysis. The negative control was the erythrocytes in PFS alone, which gave minimal lysis. This was taken as 0%.

P. aeruginosa ATCC 27853 = test: Killing rate assay; format: cell-based, Pseudomonas aeruginosa; settings: peptides at 0.06 μg/ml, initial 10^9 cfu/ml
Text: The killing rate assay was adapted from the MBC test above, with different contact time of peptides with the bacteria arrested at regular intervals and plated for colony count. An initial density of 10^9 cfu/ml was used. […] This is one of the important features of an effective therapeutic agent.

[2] = test system: LPS-induced hTNF-α secretion from THP-1; test: Inhibition of LPS-induced hTNF-α secretion from PMA-treated THP-1 cells; format: cell-based, human
Description: […] THP-1 cells were grown in RPMI 1640 medium supplemented with 10% FBS, penicillin (100 U/ml) and streptomycin (0.1 mg/ml), at 37° C. in a humidified environment in the presence of 5% CO2. The cells were maintained at a density between 2.5×10^5 and 2.5×10^6 cells/ml.
THP-1 cells were prepared for experiment by addition of a concentrated stock solution of phorbol myristate acetate (PMA, 0.3. mg/ml in dimethyl sulfoxide) to cell suspension to give a final concentration of 30 ng/ml PMA and 0.01% dimethyl sulfoxide (25). PMA-treated cell suspensions were immediately plated into 96-well microtitre plate at a density of 4×10^5 cells/ml and allowed to differentiate for 48 hours at 37° C. […] At indicated times, the culture medium was collected.

P. aeruginosa = test: Microbicidal concentration (MBC) assay; format: cell-based, Pseudomonas aeruginosa
Description: Test strains cultured on Mueller-Hinton agar (MHA, Becton Dickinson, USA) were inoculated into 10 ml Mueller-Hinton broth (MHB, Becton Dickinson, USA) and grown overnight at 37° C. in a shaker incubator (Model 4536, Forma Scientific, Inc., USA) at 230 rpm. Overnight broth cultures were diluted to give a final cell density of 10^5 colony forming units/ml (cfu/ml). One hundred microliters of the bacterial suspension was dispensed into sterile polypropylene 8-strip PCR-tubes (Quality Scientific Plastics, USA). Eleven microliters of serially diluted sushi peptides, ranging in final concentrations of 0.03-4 μg/ml, were then added. The peptides were constituted at 10 times the required test concentrations in 0.01% acetic acid and 0.2% bovine serum albumin (BSA). Positive controls were cultures without test peptides. Uninoculated MHB was used as negative control. All tests were carried out in triplicate.
Cultures were incubated at 37° C. for 18-24 h, with the PCR-tubes held in horizontal position and shaken at 230 rpm. Cell counts were determined by standard drop-count method. The killing efficiency for the four sushi peptides were calculated based on standard drop-count method.

[3] = Protection of galactosamine-sensitized mice from LPS-induced lethality; format: in vivo, C57BL/6J mice; settings: 75 μg peptide, 2 ng LPS pre-incubated with peptide 30 minutes
Description: The anti-endotoxin potency of SSCrFCES was investigated in C57BL/6J mice. Mice are typically resistant to endotoxin. However, the sensitivity of mice to endotoxin can be enhanced >1,000-fold by co-injection with a liver-specific inhibitor, galactosamine (31). […] […] Lethality was observed over 3 days after injection. Statistical analysis were performed using the Kaplan-Meier test (32) and log rank pairwise test.

For `CC[C@H](C)[C@H](NC(=O)[C@H](CCCCN)NC(=O)[C@H](C)NC(=O)[C@H](CCCCN)NC(=O)CNC(=O)[C@H](CCCCN)NC(=O)[C@H](CC(C)C)NC(=O)[C@H](CCCCN)NC(=O)[C@H](Cc1ccccc1)NC(=O)CN)C(=O)N[C@@H](CO)C(=O)N[C@@H](CS)C(=O)N[C@@H](CC(C)C)C(=O)N1CCC[C@H]1C(=O)N[C@@H](CC(N)=O)C(=O)NCC(=O)N[C@@H](CCC(N)=O)C(=O)N[C@@H](Cc1c[nH]c2ccccc12)C(=O)N[C@@H](CO)C(=O)N[C@@H](CC(N)=O)C(=O)N[C@@H](Cc1ccccc1)C(=O)N1CCC[C@H]1C(=O)N1CCC[C@H]1C(=O)N[C@@H](CCCCN)C(=O)N[C@@H](CS)C(=O)N[C@H](C(=O)N[C@@H](CCCNC(=N)N)C(=O)N[C@@H](CCC(=O)O)C(=O)N[C@@H](CS)C(=O)N[C@@H](C)C(=O)N[C@@H](CCSC)C(=O)N[C@H](C(=O)N[C@@H](CO)C(=O)N[C@@H](CO)C(=O)O)C(C)C)[C@@H](C)CC` [S1Δ] (H-GFKLKGKAKISCLPNGQWSNFPPKCIRECAMVSS-OH; N-terminus and C-terminus assumed), which “Stoichiometry of Binding Cooperativity Hill's Coefficient” value [1] is on record?
Its value is 1.06.

And the Hemolytic activity (Human erythrocytes)?
The Hemolytic activity was “negligible haemolysis”.

And the “Killing rate (time to achieve MBC90)” value (P. aeruginosa ATCC 27853)?
Its value is 7 min.

And the IC50 ([2]; peptide needed for 50% suppression, read-out: Suppression of LPS-Induced cytokine TNF-α (50%))?
The IC50 was 53 µM.

And the IC50 ([2]; read-out: 50% inhibition of LPS-induced TNF-α release, 10 ng/ml LPS, serum-free)?
Its IC50 is 53.3 µM.

And the “Anti-microbial Potency P. aeruginosa MBC90” value (P. aeruginosa; MBC)?
Its value is 0.06 µg/mL.

What about the MBC90 (P. aeruginosa; P. aeruginosa) of the same compound?
The MBC90 was “(16 nM)”.

And the “Mouse Protection Assay” value [3]?
Its value is 40% at 75.

Reference: US7297551B2, “Recombinant proteins and peptides for endotoxin biosensors, endotoxin removal, and anti-microbial and anti-endotoxin therapeutics” (priority 1998, dated 2007)
